Measurements as given in patent publication US5728686A, “Alkylxanthine phosphonates and alkylxanthine phosphine oxides and their use as pharmaceuticals” (Hoechst Aktiengesellschaft, priority 1996, dated 1998).
Values after ≈ are worked out from the molar mass of the structure shown. Read-outs that look alike come from different tables or passages of the source.

What was measured:
[1] = tested on: isolated guinea pig lung strips, Platelet activating factor (PAF); test: antagonist of PAF-induced contraction of isolated guinea pig lung strips; format: cell-based; conditions: Cavia porcellus, read-out: Anticontractile action (lung), PAF: concentration range corresponding to the IC50 value
Text: 4. Activity as an antagonist of the contraction of isolated guinea pig lung strips
The test carried out is based on the same principle as the test indicated in the pharmacological test 3; however, lung strips are used here.
Preparation of the organ sections and experimental procedure:
The guinea pig is sacrificed under laughing gas anaesthesia. The entire pulmonary tract is exposed starting from the trachea. The lobes of the lung are cut in a circular fashion such that 3 mm wide strips are formed. The strips of the upper lobes are divided in order to obtain a total of six approximately equal size strips. The strips are suspended in the organ baths under a preload of 4 g. The nutrient solutions used are modified Krebs Henseleit solutions. When using "Platelet activating factor" (PAF) as an […], the composition of this solution corresponds to that for the agonist SP in "Test 3"; for the agonist LTD4 a Krebs Henseleit solution as in the case of the agonist KCl (Test 3) is used. 95% by volume O2, 5% by volume CO2 is used for bubbling through the bath; the bath temperature is 37° C. The experimental procedure is carried out in a therapeutically cumulative methodology, using the dosage graduations 1, 3, 6 and 10 μg/ml.
The experimental animals, organ bath, vehicles and manner of administration correspond to that stated in pharmacological test 3.
All numerical values are indicated in the unit μg/ml and relate to the concentration range of tested compound of the formula I (see example numbers in Table 1) which is necessary in order to cause a contraction which corresponds to the IC50 value.

[2] = tested on: muscle group (gastrocnemius, plantaris and soleus) of the immobilized right rear extremity; test: rat muscle function test: direct electrical stimulation of muscle group after 3 weeks' immobilization; format: in vivo, male Wistar rats; conditions: oral, 1x per day for 3 weeks, as a rule 25 mg/kg, ≤-12% classified as active; for Force (force under the contraction curve, right/left difference): isometric stimulation, control difference approx. 25%; for Work (performed work, right/left difference): isotonic stimulation, control approx. -25%
Text: (§1) 1. Activity in the rat muscle function test
(§2) Male Wistar rats (body weight about 300 g) were kept under standard conditions with feed and water ad libitum. The right rear extremity was immobilized by fitting a kind of "shoe" to the animals under short-term anaesthesia. Two ergonomically fitted halves of the "shoe" were cast from a liquid plastic material which is also used for the production of dental prostheses, these were put onto the animal under brief anaesthesia and joined with the aid of a wire. The material is light but hard, so that the animals cannot gnaw the material, and the "shoe" can be opened at any time to examine the condition of the immobilized extremity. The two halves were moreover padded out with chamois leather in order to avoid compressions and possible injuries due to rubbing. The system also has the advantage that the angle of immobilization is standardized in all animals; this would not be possible with a plaster cast. The chosen angle allows the animals to take up a normal sitting position despite the "shoe" and also to carry the body weight using this extremity. Only complete stretching or bending of the leg is impossible.
(§3) After 3 weeks' immobilization of the right rear extremity and simultaneous oral administration of test preparations (1× per day using a stomach tube; as a rule 25 mg/kg of body weight, in carboxymethylcellulose, the animals were weighed and anaesthetized with pentobarbital (35 mg/kg i.p.). Functional parameters were measured during direct electrical stimulation of a muscle group (gastrocnemius, plantaris and soleus). This muscle group, merely called "muscle" in the following, was exposed at the ankle tendon and tied to a force transducer via the tendon.
To determine the contractile force, the muscles were stimulated isometrically, i.e. a preload of 0.5N was applied and the muscle was stimulated by means of a series of electrical pulses, which led to a maximum contraction, every 0.7 sec for 80 msec for a period of 15 min. […] The area under this contraction curve was evaluated and the difference in percent between the right atrophic and left normal muscle compared (force under the contraction curve as difference in percent (Δ%)). The difference in the control group is approximately 25%.
An isotonic muscle stimulation was used to determine the performed work of the muscle over time. In this type of measurement, the shortening of the muscle during contraction is used as a basis. To this end, a preload which corresponds to the body weight was applied to the muscles. A series of stimulation pulses (80 msec) were triggered every 3 sec and the muscle was stimulated for 15 min. The data (contraction force and distance travelled) were converted to the work performed in the unit J using an automated system. The difference in the work performed between the immobilized atrophic and the normal muscle in the control animals was approximately -25%.
Values which are positive indicate that the functional parameters of the immobilized muscle were better than those of the contralateral normal muscle.

soleus muscle = test: rat muscle function test: muscle weight (atrophy of immobilized extremity); format: in vivo, male Wistar rats; conditions: oral, 1x per day for 3 weeks, as a rule 25 mg/kg, difference ≤25% classified as an effect
Text: as §1, §2
In spite of this, a significant decrease in the skeletal muscle mass (atrophy) of the immobilized extremity occurred, to be precise up to -35% in comparison with the contralateral nonimmobilized rear extremity. As the soleus muscle was the most severely affected, the changes in muscle weight after administration of preparation shown in Table 1 relate to this muscle. A difference of ≤25% between the right immobilized and left non-immobilized rear extremity was classified as an effect.
as §3

phosphodiesterase III = test: inhibition of phosphodiesterase III activity; format: biochemical; conditions: at 100 μM
Experimental: 5. Inhibition of phosphodiesterase III activity
The test is carried out using phosphodiesterase from Boehringer Mannheim (Mannheim, Germany), Order No. 108 243 according to the method of T. SAEKI, I. SAITO, Biochem. Pharm. 46, No. 5, […], pages 833-839.
All numerical values are indicated in % inhibition of the enzyme activity at 100 μM of the corresponding compound of the formula I.

[3] = lung strips, PAF, cumulative, 37° C.

SMILES | IC50 [1] [µg/mL] | Force (force under the contraction curve, right/left difference) [2] | Work (performed work, right/left difference) [2] | Muscle weight (right/left difference) (soleus muscle) | IC50 [1, 3] [µg/mL] | PDE III Inhibition (phosphodiesterase III) [%]
CCOCn1cnc2c1c(=O)n(CCCCP(=O)(OCC)OCC)c(=O)n2CC [Example 54, Diethyl [4-(7-ethoxymethyl-3-ethylxanthin-1-yl)butyl]phosphonate] | 1 to 3 (≈ 2.32 to 6.97 µM) |  |  |  |  | 
CCCn1c(=O)c2c(ncn2CCCCP(=O)(OCC)OCC)n(C)c1=O [Example 13] | 6 to 10 (≈ 15 to 25 µM) | +5 Δ % | -3 Δ % | -24 Δ % |  | 
CCOP(=O)(CCCCCn1c(=O)c2c(ncn2CCC(C)C)n(C)c1=O)OCC [Example 56] |  | 0 Δ % | 0 Δ % |  |  | 
CCOP(=O)(CCCCn1c(=O)c2c(ncn2CCOC)n(C)c1=O)OCC [Example 31, Diethyl [4-(7-methoxyethyl-3-methylxanthin-1-yl)butyl]phosphonate] | 6 to 10 (≈ 14.4 to 24 µM) |  |  |  |  | 
CCOP(=O)(CCCCn1cnc2c1c(=O)[nH]c(=O)n2C)OCC [Example 3, Diethyl [4-(3-methylxanthin-7-yl)butyl]phosphonate] |  | 0 Δ % | 0 Δ % | 0 Δ % |  | 
CCOCn1cnc2c1c(=O)n(CCCP(=O)(OCC)OCC)c(=O)n2C [Example 36, Diethyl [3-(7-ethoxymethyl-3-methylxanthin-1-yl)propyl]phosphonate] | 5 to 15 (≈ 12.4 to 37.3 µM) |  |  |  |  | 
CCOP(=O)(CCCCn1cnc2c1c(=O)n(C)c(=O)n2C)OCC [Example 1, Diethyl [4-(1,3-dimethylxanthin-7-yl)butyl]phosphonate] | 3 to 9 (≈ 8.06 to 24.2 µM) |  | -8 Δ % |  |  | 
CCCCn1c(=O)c2c(ncn2CCCCCP(=O)(OCC)OCC)n(CCCC)c1=O [Example 10, Diethyl [5-(1,3-dibutylxanthin-7-yl)pentyl]phosphonate] |  | +1 Δ % | -9 Δ % | -13 Δ % |  | 
CCOP(=O)(CCCCn1c(=O)c2c(ncn2CCCCP(=O)(OCC)OCC)n(C)c1=O)OCC [Example 7, Diethyl 4-{7-[4-(diethoxyphosphoryl)butyl]-3-methylxanthin-1-yl}butyl-phosphonate] | 3 to 6 (≈ 5.45 to 10.9 µM) |  |  |  |  | 
CCOP(=O)(CCCn1cnc2c1c(=O)n(C)c(=O)n2C)OCC [Example 8, Diethyl [3-(1,3-dimethylxanthin-7-yl)propyl]phosphonate] | 5 to 10 (≈ 14 to 27.9 µM) | -11 Δ % | -7 Δ % |  |  | 
Cn1c(=O)n(CCCCP(=O)(O)O)c(=O)c2[nH]cnc21 [Example 25, Diammonium [4-(3-methylxanthin-1-yl)butyl]phosphonate] |  | +7 Δ % | -12 Δ % |  | 5 to 15 | 
CCOP(=O)(CCCCn1c(=O)c2[nH]cnc2n(CC)c1=O)OCC [Example 37, Diethyl [4-(3-ethylxanthin-1-yl)butyl]phosphonate] | 1 to 3 (≈ 2.69 to 8.06 µM) |  |  |  |  | 
CCOCn1c(=O)c2c(ncn2CCCCP(=O)(OCC)OCC)n(C)c1=O [Example 6, Diethyl [4-(1-ethoxymethyl-3-methylxanthin-7-yl)butyl]phosphonate] |  | -4 Δ % | -4 Δ % | 0 Δ % |  | 
CCOP(=O)(CCCCn1cnc2c1c(=O)n(CCCCC(C)(C)O)c(=O)n2C)OCC [Example 5] |  | +10 Δ % | +10 Δ % | 0 Δ % |  | 
CP(C)(=O)Cn1c(=O)c2c(ncn2CC2CC2)n(-c2ccccc2)c1=O [Example 71, [1-(7-Cyclopropylmethyl-3-phenylxanthin-1-yl)methyl]dimethylphosphine Oxide] |  | +4 Δ % | +5 Δ % | 0 Δ % |  | 
CCCCn1cnc2c1c(=O)n(CP(C)(C)=O)c(=O)n2CCCC [Example 72, [1-(3,7-Dibutylxanthin-1-yl)methyl]dimethylphosphine Oxide] |  | -2 Δ % | +4 Δ % | -18 Δ % |  | 
CCOCn1cnc2c1c(=O)n(CCCCP(=O)(OCC)OCC)c(=O)n2Cc1ccccc1 [Example 53, Diethyl [4-(3-benzyl-7-ethoxymethylxanthin-1-yl)butyl]phosphonate] | 1 to 3 (≈ 2.03 to 6.09 µM) | -3 Δ % | +10 Δ % | 0 Δ % |  | 
CCOP(=O)(OCC)C(C)(C)CCCCn1c(=O)c2c(ncn2CCOC)n(C)c1=O [Example 22, Diethyl [5-(7-methoxyethyl-3-methylxanthin-1-yl)-1,1-dimethylpentyl]-phosphonate] |  | -3 Δ % | -13 Δ % | 0 Δ % |  | 
CCOP(=O)(CCCCn1c(=O)c2c(ncn2CCOC)n(CC)c1=O)OCC [Example 45, Diethyl [4-(3-ethyl-7-methoxyethylxanthin-1-yl)butyl]phosphonate] | 1 to 3 (≈ 2.32 to 6.97 µM) |  |  |  |  | 
CCOP(=O)(CCCCn1c(=O)c2c(ncn2CC2CC2)n(C)c1=O)OCC [Example 50, Diethyl [4-(7-cyclopropylmethyl-3-methylxanthin-1-yl)butyl]phosphonate] |  |  |  |  |  | 51
CCOCn1cnc2c1c(=O)n(CCCCP(=O)(OCC)OCC)c(=O)n2C [Example 26, Diethyl [4-(7-ethoxymethyl-3-methylxanthin-1-yl)butyl]phosphonate] |  | -3 Δ % | -17 Δ % | -22 Δ % |  | 
CCOCn1cnc2c1c(=O)n(CCCCP(=O)(O)O)c(=O)n2C.N.N [Example 28, Diammonium [4-(7-ethoxymethyl-3-methylxanthin-1-yl)butyl]phosphonate] |  |  |  |  | 3 to 9 | 
CCCCn1c(=O)c2c(ncn2CP(C)(C)=O)n(CCCC)c1=O [Example 67, [1-(1,3-Dibutylxanthin-7-yl)methyl]dimethylphosphine Oxide] |  | -9 Δ % | -10 Δ % |  |  | 
CCOP(=O)(CCCCn1c(=O)c2c(ncn2CCC(C)C)n(C)c1=O)OCC [Example 41, Diethyl {4-[7-(3-methylbutyl)-3-methylxanthin-1-yl)butyl]phosphonate] |  |  |  |  |  | 56
